From the NIST ThermoML archive (doi:10.1016/j.jct.2006.01.012)

Assay: xn = mol fraction of the nth substance listed
Details: Liquid; for viscosity: Capillary tube (Ostwald / Ubbelohde) method; for mass density: isochoric method

CCCCCCCC [octane] + CCCCCCC
Details | mass density [kg/m3] | viscosity [mPa·s]
323.82 K, 10000 kPa, x2 = 0.7906 | – | 0.353
331.45 K, 4121 kPa, x2 = 0.7906 | 658.7 | –
331.45 K, 6311 kPa, x2 = 0.7906 | 662.6 | –
331.45 K, 8523 kPa, x2 = 0.7906 | 665.5 | –
331.45 K, 10350 kPa, x2 = 0.7906 | 667.1 | –
331.55 K, 4119 kPa, x2 = 0.5427 | 665 | –
331.55 K, 5944 kPa, x2 = 0.5427 | 668.1 | –
331.55 K, 8203 kPa, x2 = 0.5427 | 670.9 | –
331.55 K, 10100 kPa, x2 = 0.5427 | 672.6 | –
333.15 K, 100 kPa, x2 = 0.2808 | 664.9 | –
333.15 K, 100 kPa, x2 = 0.5427 | 659.9 | –
333.15 K, 100 kPa, x2 = 0.7906 | 654.4 | –
333.54 K, 100 kPa, x2 = 0.2808 | – | 0.322
333.54 K, 5000 kPa, x2 = 0.2808 | – | 0.341
333.54 K, 10000 kPa, x2 = 0.2808 | – | 0.36
333.73 K, 100 kPa, x2 = 0.5427 | – | 0.3
333.73 K, 5000 kPa, x2 = 0.5427 | – | 0.319
333.73 K, 10000 kPa, x2 = 0.5427 | – | 0.338
335.62 K, 100 kPa, x2 = 0.7906 | – | 0.281
335.62 K, 5000 kPa, x2 = 0.7906 | – | 0.298
335.62 K, 10000 kPa, x2 = 0.7906 | – | 0.316
338.15 K, 100 kPa, x2 = 0.2808 | 661 | –
338.15 K, 100 kPa, x2 = 0.5427 | 655.6 | –
338.15 K, 100 kPa, x2 = 0.7906 | 650.1 | –
343.15 K, 100 kPa, x2 = 0.2808 | 656.8 | –
343.15 K, 100 kPa, x2 = 0.5427 | 651.2 | –
343.15 K, 100 kPa, x2 = 0.7906 | 645.6 | –
344.21 K, 100 kPa, x2 = 0.7906 | – | 0.26
344.21 K, 5000 kPa, x2 = 0.7906 | – | 0.276
344.21 K, 10000 kPa, x2 = 0.7906 | – | 0.292
344.39 K, 100 kPa, x2 = 0.2808 | – | 0.291
344.39 K, 5000 kPa, x2 = 0.2808 | – | 0.308
344.39 K, 10000 kPa, x2 = 0.2808 | – | 0.325
344.4 K, 100 kPa, x2 = 0.5427 | – | 0.273
344.4 K, 5000 kPa, x2 = 0.5427 | – | 0.29
344.4 K, 10000 kPa, x2 = 0.5427 | – | 0.307
352.61 K, 2844 kPa, x2 = 0.5427 | 648 | –
352.61 K, 8237 kPa, x2 = 0.5427 | 654.9 | –
352.61 K, 10040 kPa, x2 = 0.5427 | 657 | –
352.62 K, 100 kPa, x2 = 0.5427 | – | 0.255
352.62 K, 5000 kPa, x2 = 0.5427 | – | 0.27
352.62 K, 10000 kPa, x2 = 0.5427 | – | 0.286
353.2 K, 100 kPa, x2 = 0.7906 | – | 0.239
353.2 K, 5000 kPa, x2 = 0.7906 | – | 0.255
353.2 K, 10000 kPa, x2 = 0.7906 | – | 0.27
354.08 K, 100 kPa, x2 = 0.2808 | – | 0.267
354.08 K, 5000 kPa, x2 = 0.2808 | – | 0.283
354.08 K, 10000 kPa, x2 = 0.2808 | – | 0.299
357.15 K, 100 kPa, x2 = 0.2808 | 644.3 | –
357.15 K, 100 kPa, x2 = 0.5427 | 638.8 | –
357.15 K, 100 kPa, x2 = 0.7906 | 633 | –
362.65 K, 4800 kPa, x2 = 0.2808 | 646.1 | –
362.65 K, 6720 kPa, x2 = 0.2808 | 649 | –
362.65 K, 9300 kPa, x2 = 0.2808 | 652.5 | –
363.71 K, 100 kPa, x2 = 0.2808 | – | 0.245
363.71 K, 5000 kPa, x2 = 0.2808 | – | 0.261
363.71 K, 10000 kPa, x2 = 0.2808 | – | 0.276
363.74 K, 100 kPa, x2 = 0.5427 | – | 0.232
363.74 K, 5000 kPa, x2 = 0.5427 | – | 0.247
363.74 K, 10000 kPa, x2 = 0.5427 | – | 0.26
364.62 K, 100 kPa, x2 = 0.7906 | – | 0.216
364.62 K, 5000 kPa, x2 = 0.7906 | – | 0.232
364.62 K, 10000 kPa, x2 = 0.7906 | – | 0.246
365.46 K, 3432 kPa, x2 = 0.7906 | 631.8 | –
365.46 K, 8983 kPa, x2 = 0.7906 | 639.4 | –
365.46 K, 9963 kPa, x2 = 0.7906 | 640.9 | –
